Source: PubChem BioAssay (NCI)
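Abbreviation: GI50, concentration required for 50% inhibition of growth. TGI is the concentration that stops growth completely.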

Key:
Assay in all cases: NCI-60 cell line screen, 384-well format
786-0 renal = test system: 786-0 renal
A498 renal = test system: A498 renal
A549 NSCLC = test system: A549 NSCLC
ACHN renal = test system: ACHN renal
BT-549 breast = test system: BT-549 breast
CAKI-1 renal = test system: CAKI-1 renal
CCRF-CEM leukemia = test system: CCRF-CEM leukemia
COLO 205 colon = test system: COLO 205 colon
DU-145 prostate = test system: DU-145 prostate
EKVX NSCLC = test system: EKVX NSCLC
HCC-2998 colon = test system: HCC-2998 colon
HCT-15 colon = test system: HCT-15 colon
HL-60(TB) leukemia = test system: HL-60(TB) leukemia
HOP-62 NSCLC = test system: HOP-62 NSCLC
HOP-92 NSCLC = test system: HOP-92 NSCLC
HS 578T breast = test system: HS 578T breast
HT29 colon = test system: HT29 colon
IGROV1 ovarian = test system: IGROV1 ovarian
K-562 leukemia = test system: K-562 leukemia
KM12 colon = test system: KM12 colon
LOX IMVI melanoma = test system: LOX IMVI melanoma
M14 melanoma = test system: M14 melanoma
MALME-3M melanoma = test system: MALME-3M melanoma
MCF7 breast = test system: MCF7 breast
MDA-MB-231 breast = test system: MDA-MB-231 breast
MDA-MB-435 melanoma = test system: MDA-MB-435 melanoma
MDA-MB-468 breast = test system: MDA-MB-468 breast
MOLT-4 leukemia = test system: MOLT-4 leukemia
NCI-H226 lung = test system: NCI-H226 lung
NCI-H23 lung = test system: NCI-H23 lung
NCI-H322M lung = test system: NCI-H322M lung
NCI-H460 NSCLC = test system: NCI-H460 NSCLC
NCI-H522 lung = test system: NCI-H522 lung
NCI/ADR-RES ovarian = test system: NCI/ADR-RES ovarian
OVCAR-3 ovarian = test system: OVCAR-3 ovarian
OVCAR-4 ovarian = test system: OVCAR-4 ovarian
OVCAR-5 ovarian = test system: OVCAR-5 ovarian
OVCAR-8 ovarian = test system: OVCAR-8 ovarian
PC-3 prostate = test system: PC-3 prostate
RPMI-8226 leukemia = test system: RPMI-8226 leukemia
RXF 393 renal = test system: RXF 393 renal
SF-268 CNS = test system: SF-268 CNS
SF-295 CNS = test system: SF-295 CNS
SF-539 CNS = test system: SF-539 CNS
SK-MEL-28 melanoma = test system: SK-MEL-28 melanoma
SK-MEL-5 melanoma = test system: SK-MEL-5 melanoma
SK-OV-3 ovarian = test system: SK-OV-3 ovarian
SN12C renal = test system: SN12C renal
SNB-19 CNS = test system: SNB-19 CNS
SNB-75 CNS = test system: SNB-75 CNS
SR leukemia = test system: SR leukemia
SW-620 colon = test system: SW-620 colon
T-47D breast = test system: T-47D breast
TK-10 renal = test system: TK-10 renal
U251 glioblastoma = test system: U251 glioblastoma
UACC-257 melanoma = test system: UACC-257 melanoma
UACC-62 melanoma = test system: UACC-62 melanoma
UO-31 renal = test system: UO-31 renal

`Cc1ccc(NC(=O)c2ccc(CN3CCN(C)CC3)cc2)cc1Nc1nc(-c2cccnc2)cs1` showed a GI50 ([…]-0 renal) of 1.79 µM, a TGI (786-0 renal) of 3.66 µM and a GI50 (A498 renal) of 2.42 µM. It also gave a TGI (A498 renal) of 5.52 µM, a GI50 (A549 NSCLC) of 5.25 µM and a TGI (A549 NSCLC) of 17.3 µM. It also gave a GI50 (ACHN renal) of 3.31 µM, a TGI (ACHN renal) of 9.96 µM and a GI50 (BT-549 breast) of 4.12 µM. The TGI (BT-549 breast) was 14.4 µM, the GI50 (CAKI-1 renal) was 3.9 µM and the TGI (CAKI-1 renal) was 13 µM. It also gave a GI50 (CCRF-CEM leukemia) of 1.54 µM, a TGI (CCRF-CEM leukemia) of 3.09 µM and a GI50 (COLO 205 colon) of 3.64 µM. It also gave a TGI (COLO 205 colon) of 11 µM, a GI50 (DU-145 prostate) of 12 µM and a TGI (DU-145 prostate) of 24.4 µM. For the same compound, the GI50 (EKVX NSCLC) was 4.22 µM, the TGI (EKVX NSCLC) was 15.4 µM and the GI50 (HCC-2998 colon) was 1.84 µM. It also gave a TGI (HCC-2998 colon) of 3.68 µM, a GI50 (HCT-15 colon) of 1.69 µM and a TGI (HCT-15 colon) of 3.2 µM. It also gave a GI50 (HL-60(TB) leukemia) of 1.74 µM, a TGI (HL-60(TB) leukemia) of 3.16 µM and a GI50 (HOP-62 NSCLC) of 4.31 µM. The TGI (HOP-62 NSCLC) was 15.4 µM, the GI50 (HOP-92 NSCLC) was 3.33 µM and the TGI (HOP-92 NSCLC) was 12.2 µM. For the same compound, the GI50 (HS 578T breast) was 1.73 µM, the TGI (HS 578T breast) was 3.87 µM and the GI50 (HT29 colon) was 1.72 µM. It also gave a TGI (HT29 colon) of 3.32 µM, a GI50 (IGROV1 ovarian) of 11.2 µM and a TGI (IGROV1 ovarian) of 23.3 µM. For the same compound, the GI50 (K-562 leukemia) was 0.283 µM, the TGI (K-562 leukemia) was 1.12 µM and the GI50 (KM12 colon) was 3.11 µM. The TGI (KM12 colon) was 10.3 µM, the GI50 (LOX IMVI melanoma) was 1.91 µM and the TGI (LOX IMVI melanoma) was 3.52 µM. For the same compound, the GI50 (M14 melanoma) was 2.07 µM, the TGI (M14 melanoma) was 4.11 µM and the GI50 (MALME-3M melanoma) was 1.64 µM. The TGI (MALME-3M melanoma) was 3.16 µM, the GI50 (MCF7 breast) was 1.94 µM and the TGI (MCF7 breast) was 5.95 µM. It also gave a GI50 (MDA-MB-231 breast) of 3.38 µM, a TGI (MDA-MB-231 breast) of 11.7 µM and a GI50 (MDA-MB-435 melanoma) of 6.47 µM. The TGI (MDA-MB-435 melanoma) was 18.9 µM, the GI50 (MDA-MB-468 breast) was 1.65 µM and the TGI (MDA-MB-468 breast) was 3.77 µM. For the same compound, the GI50 (MOLT-4 leukemia) was 1.55 µM, the TGI (MOLT-4 leukemia) was 2.95 µM and the GI50 (NCI-H226 lung) was 3.84 µM. The TGI (NCI-H226 lung) was 15.9 µM, the GI50 (NCI-H23 lung) was 2.9 µM and the TGI (NCI-H23 lung) was 11.9 µM. For the same compound, the GI50 (NCI-H322M lung) was 3.39 µM, the TGI (NCI-H322M lung) was 11.4 µM and the GI50 (NCI-H460 NSCLC) was 2.16 µM. For the same compound, the TGI (NCI-H460 NSCLC) was 4.71 µM, the GI50 (NCI-H522 lung) was 3.83 µM and the TGI (NCI-H522 lung) was 13.9 µM. For the same compound, the GI50 (NCI/ADR-RES ovarian) was 5.47 µM, the TGI (NCI/ADR-RES ovarian) was 16.6 µM and the GI50 (OVCAR-3 ovarian) was 2.24 µM. The TGI (OVCAR-3 ovarian) was 5.16 µM, the GI50 (OVCAR-4 ovarian) was 2.59 µM and the TGI (OVCAR-4 ovarian) was 11.1 µM. The GI50 (OVCAR-5 ovarian) was 3.4 µM, the TGI (OVCAR-5 ovarian) was 9.15 µM and the GI50 (OVCAR-8 ovarian) was 3.54 µM. The TGI (OVCAR-8 ovarian) was 12.5 µM, the GI50 (PC-3 prostate) was 3.25 µM and the TGI (PC-3 prostate) was 9.72 µM. It also gave a GI50 (RPMI-8226 leukemia) of 1.42 µM, a TGI (RPMI-8226 leukemia) of 2.78 µM and a GI50 (RXF 393 renal) of 1.54 µM. The TGI (RXF 393 renal) was 2.98 µM, the GI50 (SF-268 CNS) was 4.08 µM and the TGI (SF-268 CNS) was 14 µM. It also gave a GI50 (SF-295 CNS) of 1.84 µM, a TGI (SF-295 CNS) of 3.32 µM and a GI50 (SF-539 CNS) of 1.5 µM. For the same compound, the TGI (SF-539 CNS) was 3.19 µM, the GI50 (SK-MEL-28 melanoma) was 1.91 µM and the TGI (SK-MEL-28 melanoma) was 3.42 µM. For the same compound, the GI50 (SK-MEL-5 melanoma) was 1.55 µM, the TGI (SK-MEL-5 melanoma) was 3.15 µM and the GI50 (SK-OV-3 ovarian) was 3.89 µM. For the same compound, the TGI (SK-OV-3 ovarian) was 12.3 µM, the GI50 (SN12C renal) was 12.7 µM and the TGI (SN12C renal) was 25.3 µM. For the same compound, the GI50 (SNB-19 CNS) was 10.6 µM, the TGI (SNB-19 CNS) was 22.5 µM and the GI50 (SNB-75 CNS) was 3.7 µM. It also gave a TGI (SNB-75 CNS) of 12 µM, a GI50 (SR leukemia) of 1.53 µM and a TGI (SR leukemia) of 2.87 µM. For the same compound, the GI50 (SW-620 colon) was 2.17 µM, the TGI (SW-620 colon) was 5.13 µM and the GI50 (T-47D breast) was 1.76 µM. For the same compound, the TGI (T-47D breast) was 5.2 µM, the GI50 (TK-10 renal) was 12.2 µM and the TGI (TK-10 renal) was 24.7 µM. The GI50 (U251 glioblastoma) was 2.36 µM, the TGI (U251 glioblastoma) was 5.39 µM and the GI50 (UACC-257 melanoma) was 1.82 µM. For the same compound, the TGI (UACC-257 melanoma) was 3.37 µM, the GI50 (UACC-62 melanoma) was 1.75 µM and the TGI (UACC-62 melanoma) was 3.64 µM. It also gave a GI50 (UO-31 renal) of 5.43 µM and a TGI (UO-31 renal) of 17.4 µM.
